From US20240182407A1, “QUINOLINE COMPOUND SALT OR CRYSTAL FORM, PREPARATION METHOD THEREFOR, AND APPLICATION THEREOF” (Nanjing Zenshine Pharmaceuticals Co., Ltd., priority 2021, published 2024)
Like-named read-outs stand apart in the source and are kept apart here.

Assays:
SU-DHL-6 = experiment: Proliferation of lymphoma cell line in vitro, SU-DHL-6; format: cell-based; settings: Homo sapiens, read-out: absolute IC50 (AbsIC50), proliferation
PI3Kα (p110α/p85α) = target: T1, PI3Kα (p110α/p85α) (Homo sapiens, UniProt P42336); experiment: ADP-Glo kinase inhibition, PI3Kα; settings: read-out: IC50 PI3Kα Biochemical
T1 construct: purchased Invitrogen PV4788
T1 sequence (P42336 whole entry): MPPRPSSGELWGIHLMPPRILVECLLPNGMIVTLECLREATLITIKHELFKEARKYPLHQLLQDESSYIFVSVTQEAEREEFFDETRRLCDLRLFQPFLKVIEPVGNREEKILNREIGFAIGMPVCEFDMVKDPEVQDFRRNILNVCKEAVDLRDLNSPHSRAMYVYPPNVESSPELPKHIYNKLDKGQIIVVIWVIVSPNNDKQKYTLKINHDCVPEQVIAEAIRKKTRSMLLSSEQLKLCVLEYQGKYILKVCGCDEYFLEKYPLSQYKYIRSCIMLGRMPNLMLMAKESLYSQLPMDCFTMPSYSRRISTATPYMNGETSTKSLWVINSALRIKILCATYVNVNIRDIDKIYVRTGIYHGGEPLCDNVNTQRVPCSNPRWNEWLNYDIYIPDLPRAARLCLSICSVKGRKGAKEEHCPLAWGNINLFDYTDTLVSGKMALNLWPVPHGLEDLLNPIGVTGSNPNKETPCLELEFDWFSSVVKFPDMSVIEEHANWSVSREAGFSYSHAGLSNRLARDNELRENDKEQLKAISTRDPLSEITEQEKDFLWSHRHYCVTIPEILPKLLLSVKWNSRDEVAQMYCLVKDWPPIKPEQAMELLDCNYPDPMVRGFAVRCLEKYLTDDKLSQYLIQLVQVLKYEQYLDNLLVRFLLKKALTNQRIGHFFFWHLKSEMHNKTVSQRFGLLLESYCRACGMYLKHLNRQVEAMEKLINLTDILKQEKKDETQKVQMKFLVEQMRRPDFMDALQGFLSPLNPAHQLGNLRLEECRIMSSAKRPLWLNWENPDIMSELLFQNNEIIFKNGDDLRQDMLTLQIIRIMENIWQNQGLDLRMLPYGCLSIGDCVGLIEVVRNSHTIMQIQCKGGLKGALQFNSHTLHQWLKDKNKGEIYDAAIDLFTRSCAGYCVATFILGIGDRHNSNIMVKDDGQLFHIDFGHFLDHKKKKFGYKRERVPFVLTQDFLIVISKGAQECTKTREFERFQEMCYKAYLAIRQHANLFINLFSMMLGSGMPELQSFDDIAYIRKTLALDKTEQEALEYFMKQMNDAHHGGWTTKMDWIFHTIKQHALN
T1 sequence (P27986 whole entry partner): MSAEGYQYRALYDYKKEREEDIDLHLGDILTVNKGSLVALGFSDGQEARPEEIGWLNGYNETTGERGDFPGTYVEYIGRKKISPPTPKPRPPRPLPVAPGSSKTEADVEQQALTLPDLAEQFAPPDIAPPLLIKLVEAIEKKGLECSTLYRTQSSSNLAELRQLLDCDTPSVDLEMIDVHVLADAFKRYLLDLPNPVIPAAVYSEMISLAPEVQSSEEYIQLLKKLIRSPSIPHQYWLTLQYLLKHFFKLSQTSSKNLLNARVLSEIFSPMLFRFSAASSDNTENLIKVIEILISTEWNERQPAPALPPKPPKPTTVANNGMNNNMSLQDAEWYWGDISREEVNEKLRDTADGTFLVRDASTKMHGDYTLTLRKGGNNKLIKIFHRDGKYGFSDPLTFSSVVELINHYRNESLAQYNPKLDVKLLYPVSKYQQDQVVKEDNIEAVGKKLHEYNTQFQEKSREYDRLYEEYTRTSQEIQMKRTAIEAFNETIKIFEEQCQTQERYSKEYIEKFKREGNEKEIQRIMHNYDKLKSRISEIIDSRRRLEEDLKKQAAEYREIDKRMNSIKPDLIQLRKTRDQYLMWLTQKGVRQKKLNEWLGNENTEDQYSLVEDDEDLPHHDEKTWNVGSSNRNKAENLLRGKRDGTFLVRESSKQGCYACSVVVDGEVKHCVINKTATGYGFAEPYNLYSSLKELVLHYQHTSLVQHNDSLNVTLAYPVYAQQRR
Description: In Example 7, the inhibitory effects of Sample 6 prepared in Example 6 above on kinases PI3Kα, PI3Kβ, PI3Kγ and PI3Kδ were tested.
The kinases used in the experiment were respectively purchased from: • PI3Kα (p110α/p85α), purchased from Invitrogen, under Cat. No. PV4788; • PI3Kβ (p110β), purchased from eurofins, under Cat. No. 14-603M; • PI3Kδ (p110δ/p85a), purchased from Invitrogen, under Cat. No. PV6452; and • PI3Kγ (p110γ), purchased from Invitrogen, under Cat. No. PR8641C. • Firstly, a 1× kinase buffer solution was prepared, which comprised: • 50 mM HEPES, pH 7.5 • 3 mM MgCl2 • 1 mM EGTA • 100 mM NaCl • 0.03% CHAPS • 2 mM DTT
On kinases PI3Kα, PI3Kβ and PI3Kγ, the final detection concentration of the compound was 10 μM. 100× concentration was prepared, i.e., 1000 μM. 90 μL of 100% DMSO was added to the second well in row A on a 96-well plate, 10 μL of a 10 mM compound solution was then added, and 3-fold serial dilution was made to obtain a total of 10 concentrations.
50 μL of 100% DMSO was transferred to two empty wells as Max well and Min well, respectively.
50 nL of the compound was transferred into a 384-well plate using ECHO550.
Preparation of 2× kinase solution: the kinase was added to a 1× kinase buffer to prepare a 2× enzyme solution. […]
Finally, the chemiluminescence values were read from Envision 2104 Multi-label Reader and subjected to curve fitting, and IC50 was calculated.

[1] = Crystal form stability under high humidity (XRPD); format: physicochemical; settings: RT/92.5% RH, 11 days
From the text: (§1) In addition, the stability of p-toluenesulfonate crystal form I (Sample 8) under grinding and high humidity conditions was investigated.
For example, the p-toluenesulfonate crystal form I sample was placed at RT/92.5% RH for 11 days and then measured by XRPD.

[2] = Crystal form stability under grinding (XRPD); format: physicochemical; settings: ground in a mortar for 2 min
Description: as §1
A certain amount of p-toluenesulfonate crystal form I was ground in a mortar for 2 min and then measured by XRPD.

PI3Kα = target: T2, PI3Kα (Mus musculus, UniProt P42337); experiment: Akt phosphorylation in C2Cl2 cells stimulated by IGF-1 (AlphaLISA); settings: phosphorylation of Akt, C2C12 cells, read-out: IC50 PI3Kα Cell-based
T2 construct: host or cells: C2C12 cells
T2 sequence (P42337 whole entry): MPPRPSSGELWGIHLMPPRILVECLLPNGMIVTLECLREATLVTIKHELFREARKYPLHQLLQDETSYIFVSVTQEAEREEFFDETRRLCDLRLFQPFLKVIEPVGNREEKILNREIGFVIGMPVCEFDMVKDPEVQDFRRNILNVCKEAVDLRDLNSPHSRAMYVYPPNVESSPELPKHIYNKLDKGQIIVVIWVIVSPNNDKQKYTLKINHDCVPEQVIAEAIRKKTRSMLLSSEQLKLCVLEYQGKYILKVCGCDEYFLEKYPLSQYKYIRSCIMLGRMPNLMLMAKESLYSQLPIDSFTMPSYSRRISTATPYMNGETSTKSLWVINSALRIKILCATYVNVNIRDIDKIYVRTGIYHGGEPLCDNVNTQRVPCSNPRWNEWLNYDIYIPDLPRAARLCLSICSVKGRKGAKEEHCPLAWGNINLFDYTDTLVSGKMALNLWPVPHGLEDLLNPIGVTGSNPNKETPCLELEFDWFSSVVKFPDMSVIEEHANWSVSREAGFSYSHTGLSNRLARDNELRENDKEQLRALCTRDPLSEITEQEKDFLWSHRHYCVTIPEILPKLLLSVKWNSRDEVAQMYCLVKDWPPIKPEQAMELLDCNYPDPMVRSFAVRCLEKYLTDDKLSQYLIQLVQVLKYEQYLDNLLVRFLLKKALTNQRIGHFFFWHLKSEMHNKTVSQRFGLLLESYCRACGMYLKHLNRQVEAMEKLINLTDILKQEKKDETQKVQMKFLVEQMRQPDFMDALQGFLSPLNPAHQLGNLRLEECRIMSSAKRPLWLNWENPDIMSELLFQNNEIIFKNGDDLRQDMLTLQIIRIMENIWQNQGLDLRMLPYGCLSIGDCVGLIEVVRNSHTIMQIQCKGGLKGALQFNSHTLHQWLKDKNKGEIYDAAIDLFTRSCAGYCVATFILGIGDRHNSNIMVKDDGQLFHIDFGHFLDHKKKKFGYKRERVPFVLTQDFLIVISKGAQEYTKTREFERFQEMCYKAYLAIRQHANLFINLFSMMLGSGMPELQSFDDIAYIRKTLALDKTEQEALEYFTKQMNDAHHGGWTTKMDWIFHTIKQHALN
T2 sequence (P26450 whole entry partner): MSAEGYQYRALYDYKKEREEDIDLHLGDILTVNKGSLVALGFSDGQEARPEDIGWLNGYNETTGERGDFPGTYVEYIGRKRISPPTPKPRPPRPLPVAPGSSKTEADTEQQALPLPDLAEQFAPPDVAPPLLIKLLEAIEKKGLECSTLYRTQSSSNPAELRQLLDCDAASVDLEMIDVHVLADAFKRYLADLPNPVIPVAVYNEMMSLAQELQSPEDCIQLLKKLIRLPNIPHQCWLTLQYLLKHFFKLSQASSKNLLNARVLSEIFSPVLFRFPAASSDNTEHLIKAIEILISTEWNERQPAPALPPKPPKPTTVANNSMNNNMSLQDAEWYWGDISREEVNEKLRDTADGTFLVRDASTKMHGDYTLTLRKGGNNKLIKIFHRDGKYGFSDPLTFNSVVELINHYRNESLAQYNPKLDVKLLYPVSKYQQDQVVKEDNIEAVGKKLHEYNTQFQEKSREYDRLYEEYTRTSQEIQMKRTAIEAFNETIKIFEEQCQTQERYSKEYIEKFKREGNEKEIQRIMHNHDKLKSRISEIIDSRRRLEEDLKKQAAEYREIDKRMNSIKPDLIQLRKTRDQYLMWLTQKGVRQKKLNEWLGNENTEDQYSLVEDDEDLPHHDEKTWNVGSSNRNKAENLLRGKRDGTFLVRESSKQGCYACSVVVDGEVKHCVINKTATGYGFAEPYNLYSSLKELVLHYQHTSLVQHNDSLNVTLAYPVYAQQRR
Description: In addition, taking Sample 6 as an example, the inhibitory effects thereof on PI3Kα, PI3Kβ, PI3Kγ and PI3Kδ in corresponding cells were determined. The activity of PI3Kα was detected by the phosphorylation level of Akt in C2Cl2 cells stimulated by IGF-1, the activity of PI3Kβ was detected by the phosphorylation level of Akt in PC-3 cells stimulated by LPA, the activity of PI3Kγ was detected by the phosphorylation level of Akt in Raw264.7 cells stimulated by c5α, and the activity of PI3Kδ was detected by the phosphorylation level of Akt in Raji cells stimulated by IgM. The phosphorylation level of Akt in cells was determined by means of AlphaLISA technique from PerkinElemer.
The C2C12 cells, PC-3 cells, Raw264.7 cells and Raji cells were all purchased from ATCC.

[3] = Solubility in organic solvents; format: physicochemical; settings: organic solvent or mixture
From the text: Therefore, these two solvents were taken, for example, as good solvents and subjected to anti-solvent precipitation experiments.

[4] = Dynamic water desorption analysis (DVS), hygroscopicity; format: physicochemical
Description: (§2) The instrument model used for DVS analysis was IGA Sorp (Hidentity Isochema). The sample was measured in a gradient mode, the humidity range for the test was from 0% to 90%, and the humidity increment of each gradient was 10%. The time to keep at each humidity gradient was from 30 min to 2 h.
It was determined by NMR and TGA that the sample had essentially no weight loss and no solvent residue before decomposition.
as §2, with “Sample 3 was taken as an example for dynamic water desorption analysis (DVS) characterization. The instrument” for “The instrument”

In the case of `C[C@H](Nc1nc(N)nc(N)c1C#N)c1cc2ccc(F)cc2nc1-c1ccccn1` [p-toluenesulfonate of Compound A], the IC50 (SU-DHL-6) is reported as less than 0.1 µM, the IC50 (PI3Kα (p110α/p85α)) is reported as 0.117 µM and the “crystal form after high humidity (XRPD)” value [1] is reported as “crystal form of the sample did not change”. For the same compound, the “crystal form after grinding (XRPD)” value [2] was “still p-toluenesulfonate crystal form I”, the IC50 (PI3Kα) was 3.52 µM and the Solubility ([3]; methanol, read-out: solubility in methanol) was greater than 24 mg/mL. The Solubility ([3]; tetrahydrofuran, read-out: solubility in tetrahydrofuran) was greater than 11.6 mg/mL, the “crystal form before and after humidity change (XRPD after DVS)” value ([4]; 0% to 90% RH) was “remained unchanged” and the “moisture absorbed (DVS)” value ([4]; at 90% RH) was 0.92%.
